Assay results taken from patent publication US12129312B2, “Peptide compound, application thereof and composition containing same” (priority 2017, dated 2024).
Numbered stars: 1 amine (or outer) side, 2 acyl side, 3 side chain; on linkers, the order of the positions; unused ones are H or OH. Square brackets hold non-standard residues; d marks the D form. Peptide text beside a SMILES is read from it. * marks the point of attachment. Pro(trans-4-Ph) = O=C(O)[C@@H]1C[C@@H](c2ccccc2)CN1; Phenylacetyl(4-Ph) = O=C(Cc1ccc(-c2ccccc2)cc1)*; Benzoyl(3,5-(OH)2) = O=C(c1cc(O)cc(O)c1)*; PEG8 = NCCOCCOCCOCCOCCOCCOCCOCCOCCC(=O)O; Pro(4,4-F2) = O=C(O)[C@@H]1CC(F)(F)CN1; X5 = O=C([C@H]1c2ccccc2CCN1[*:1])[*:2]; 1Nal = N[C@@H](Cc1cccc2ccccc12)C(=O)O; 2Nal = N[C@@H](Cc1ccc2ccccc2c1)C(=O)O; dNMeY = CN[C@H](Cc1ccc(O)cc1)C(=O)O; X3 = O=C(N1Cc2ccccc2CN1[*:1])[*:2]; Myristoyl = CCCCCCCCCCCCCC(=O)*; NMeQ = CN[C@@H](CCC(N)=O)C(=O)O; Tic = O=C(O)[C@@H]1Cc2ccccc2CN1; NMeL = CN[C@@H](CC(C)C)C(=O)O; NMehSer = CN[C@@H](CCO)C(=O)O; NMeS = CN[C@@H](CO)C(=O)O; Pip = O=C(O)[C@@H]1CCCCN1; Thz = O=C(O)[C@@H]1CSCN1; Aze = O=C(O)[C@@H]1CCN1; βAla = NCCC(=O)O

Biological target: T1, human Chemokine like receptor 1 (Homo sapiens, UniProt Q99788)
T1 construct: host or cells: U2OS (Tango CMKLR1-bla U2OS)
T1 sequence (Q99788 1-373): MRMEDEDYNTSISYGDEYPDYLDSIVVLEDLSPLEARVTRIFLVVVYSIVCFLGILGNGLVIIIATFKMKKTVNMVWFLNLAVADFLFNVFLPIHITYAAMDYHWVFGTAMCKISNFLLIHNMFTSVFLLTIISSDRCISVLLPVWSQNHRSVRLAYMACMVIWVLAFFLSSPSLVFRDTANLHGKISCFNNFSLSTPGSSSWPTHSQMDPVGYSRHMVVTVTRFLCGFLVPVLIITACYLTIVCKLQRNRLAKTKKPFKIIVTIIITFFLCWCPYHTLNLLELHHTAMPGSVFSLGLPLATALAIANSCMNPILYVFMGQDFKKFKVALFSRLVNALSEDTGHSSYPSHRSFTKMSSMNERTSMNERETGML
Assay: Activation of Tango CMKLR1-bla U2OS cells (beta-lactamase FRET reporter)
Format: cell-based
Settings: not given
Outline: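 Agonist mode in Tango CMKLR1-bla U2OS cells, 10000 cells/well seeded overnight, then 10-point 3-fold compound dilutions from 10 mM DMSO stock applied for 4 h at 37 °C, 5% CO2. Beta-lactamase reporter read with CCF4-AM FRET substrate; peptide (D-Tyr)-Phe-Leu-Pro-(D-Ser)-Gln-Phe-(D-Ala)-Tic-Ser served as positive control.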

Compound	EC50 [nM]
CC(C)C[C@@H](C(=O)N1CC(F)(F)C[C@H]1C(=O)N[C@H](CO)C(=O)N[C@@H](CCC(N)=O)C(=O)N[C@@H](Cc1ccc2ccccc2c1)C(=O)N[C@H](C)C(=O)N1Cc2ccccc2C[C@H]1C(=O)N(C)[C@@H](CO)C(=O)O)N(C)C(=O)[C@H](Cc1ccccc1)NC(=O)[C@H](N)Cc1ccc(O)cc1 [YW-224, (D-Tyr)-Phe-(NMe-Leu)-Pro(diF)-(D-Ser)-Gln-2Nal-(D-Ala)-Tic-NMeSer] (H-[dY]F[NMeL][Pro(4,4-F2)][dS]Q[2Nal][dA][Tic][NMeS]-OH)	1.3
CC(C)C[C@@H](C(=O)N1CCC[C@H]1C(=O)N[C@H](CO)C(=O)N[C@@H](CCC(N)=O)C(=O)N[C@@H](Cc1ccccc1)C(=O)N[C@H](C)C(=O)N1Cc2ccccc2C[C@H]1C(=O)N[C@@H](CO)C(=O)O)N(C)C(=O)[C@H](Cc1cccc2ccccc12)NC(=O)[C@H](N)Cc1ccc(O)cc1 [YW-199, (D-Tyr)-1Nal-(NMe-Leu)-Pro-(D-Ser)-Gln-Phe-(D-Ala)-Tic-Ser] (H-[dY][1Nal][NMeL]P[dS]QF[dA][Tic]S-OH)	2.9
CC(C)C[C@H](NC(=O)[C@H](Cc1ccccc1)NC(=O)[C@H](N)Cc1ccc(O)cc1)C(=O)N1CCCC[C@H]1C(=O)N[C@H](CO)C(=O)N[C@@H](CCC(N)=O)C(=O)N[C@@H](Cc1ccccc1)C(=O)N[C@H](C)C(=O)N1Cc2ccccc2C[C@H]1C(=O)N[C@@H](CO)C(=O)O [YW-96, (D-Tyr)-Phe-Leu-(S-Pip)-(D-Ser)-Gln-Phe-(D-Ala)-Tic-Ser] (H-[dY]FL[Pip][dS]QF[dA][Tic]S-OH; N-terminus assumed)	39
CC(C)C[C@H](NC(=O)[C@H](Cc1ccccc1)NC(=O)[C@@H](Cc1ccc(O)cc1)NC(=O)Cc1ccc(-c2ccccc2)cc1)C(=O)N1CCC[C@H]1C(=O)N[C@H](CO)C(=O)N[C@@H](CCC(N)=O)C(=O)N[C@@H](Cc1ccccc1)C(=O)N[C@H](C)C(=O)N1Cc2ccccc2C[C@H]1C(=O)N[C@@H](CO)C(=O)O [YW-77, 4-biphenylacetyl-(D-Tyr)-Phe-Leu-Pro-(D-Ser)-Gln-Phe-(D-Ala)-Tic-Ser-OH] ({Phenylacetyl(4-Ph)}-[dY]FLP[dS]QF[dA][Tic]S-OH)	53

Same assay, conditions: Tango CMKLR1-bla U2OS cells, 4 hours incubation, four-parameter fit of activation rate

EC50	Compound
no fit	CC(C)C[C@H](NC(=O)[C@H](Cc1ccccc1)NC(=O)[C@H](N)Cc1ccc(O)cc1)C(=O)N1CCC[C@H]1C(=O)N[C@H](CO)C(=O)N[C@@H](CCC(N)=O)C(=O)N[C@H](CO)C(=O)N[C@H](C)C(=O)N1Cc2ccccc2CN1C(=O)N[C@@H](CO)C(=O)O [YW-147, (D-Tyr)-Phe-Leu-Pro-(D-Ser)-Gln-(D-Ser)-(D-Ala)-azaTic-Ser-OH] (H-[dY]FLP[dS]Q[dS][dA][X3]S-OH; N-terminus assumed)

Same assay, conditions: determination by the method of Effect Embodiment 1; read-out: EC50

EC50 [nM]	Compound
> 50000	CC(C)C[C@H](NC(=O)[C@H](Cc1ccccc1)NC(=O)[C@H](N)Cc1ccc(O)cc1)C(=O)N1CCC[C@H]1C(=O)N[C@H](CO)C(=O)N(C)[C@@H](CCC(N)=O)C(=O)N[C@@H](Cc1ccccc1)C(=O)N[C@H](C)C(=O)N1Cc2ccccc2C[C@H]1C(=O)N[C@@H](CO)C(=O)O [YW-107, (D-Tyr)-Phe-Leu-Pro-(D-Ser)-(NMe-Gln)-Phe-(D-Ala)-Tic-Ser-OH] (H-[dY]FLP[dS][NMeQ]F[dA][Tic]S-OH)
1.3	CN[C@H](Cc1ccc(O)cc1)C(=O)N[C@@H](Cc1ccccc1)C(=O)N(C)[C@@H](CC(C)C)C(=O)N1CSC[C@H]1C(=O)N[C@H](CO)C(=O)N[C@@H](CCC(N)=O)C(=O)N[C@@H](Cc1ccccc1)C(=O)N[C@H](C)C(=O)N1Cc2ccccc2C[C@H]1C(=O)N(C)[C@@H](CO)C(=O)O [YW-124, (NMe-D-Tyr)-Phe-(NMe-Leu)-Thz-(D-Ser)-Gln-Phe-(D-Ala)-Tic-(NMe-Ser)-OH] (H-[dNMeY]F[NMeL][Thz][dS]QF[dA][Tic][NMeS]-OH)
4.7	CC(C)C[C@H](NC(=O)[C@H](Cc1ccccc1)NC(=O)[C@@H](Cc1ccc(O)cc1)NC(=O)c1cc(O)cc(O)c1)C(=O)N1CCC[C@H]1C(=O)N[C@H](CO)C(=O)N[C@@H](CCC(N)=O)C(=O)N[C@@H](Cc1ccccc1)C(=O)N[C@H](C)C(=O)N1Cc2ccccc2C[C@H]1C(=O)N[C@@H](CO)C(=O)O [YW-79, 3,5-dihydroxybenzoyl-(D-Tyr)-Phe-Leu-Pro-(D-Ser)-Gln-Phe-(D-Ala)-Tic-Ser-OH] ({Benzoyl(3,5-(OH)2)}-[dY]FLP[dS]QF[dA][Tic]S-OH)
1.4	CCCCCCCCCCCCCC(=O)NCCOCCOCCOCCOCCOCCOCCOCCOCCC(=O)NCCC(=O)NCCC(=O)N(C)[C@H](Cc1ccc(O)cc1)C(=O)N[C@@H](Cc1ccccc1)C(=O)N(C)[C@@H](CC(C)C)C(=O)N1CCC[C@H]1C(=O)N[C@H](CO)C(=O)N[C@@H](CCC(N)=O)C(=O)N[C@@H](Cc1ccc2ccccc2c1)C(=O)N[C@H](C)C(=O)N1Cc2ccccc2C[C@H]1C(=O)N(C)[C@@H](CO)C(=O)O [YW-180, Tetradecanoyl-PEG8-βAla-βAla-(D-NMe-Tyr)-Phe-(NMe-Leu)-Pro-(D-Ser)-Gln-2Nal-(D-Ala)-Tic-(NMe-Ser)] ({Myristoyl-PEG8-βAla-βAla}-[dNMeY]F[NMeL]P[dS]Q[2Nal][dA][Tic][NMeS]-OH)
> 50000	CC(C)C[C@H](NC(=O)[C@H](Cc1ccccc1)NC(=O)[C@H](N)Cc1ccc(O)cc1)C(=O)N1CCC[C@H]1C(=O)N[C@H](CO)C(=O)N[C@@H](CCC(N)=O)C(=O)N[C@H](CO)C(=O)N[C@H](C)C(=O)N1Cc2ccccc2CN1C(=O)N[C@@H](CO)C(=O)O [YW-147, (D-Tyr)-Phe-Leu-Pro-(D-Ser)-Gln-(D-Ser)-(D-Ala)-azaTic-Ser-OH] (H-[dY]FLP[dS]Q[dS][dA][X3]S-OH; N-terminus assumed)
8.5	CC(C)C[C@@H](C(=O)N1CCC[C@H]1C(=O)N[C@H](CO)C(=O)N[C@@H](CCC(N)=O)C(=O)N[C@@H](Cc1ccccc1)C(=O)N[C@H](C)C(=O)N1CCc2ccccc2[C@@H]1C(=O)N[C@@H](CO)C(=O)O)N(C)C(=O)[C@H](Cc1ccccc1)NC(=O)[C@H](N)Cc1ccc(O)cc1 [YW-153, (D-Tyr)-Phe-(NMe-Leu)-Pro-(D-Ser)-Gln-Phe-(D-Ala)-D-Ti1c-Ser-OH] (H-[dY]F[NMeL]P[dS]QF[dA][X5]S-OH)
8.6	CC(C)C[C@H](NC(=O)[C@H](Cc1ccccc1)NC(=O)[C@H](N)Cc1ccc(O)cc1)C(=O)N1C[C@H](c2ccccc2)C[C@H]1C(=O)N[C@H](CO)C(=O)N[C@@H](CCC(N)=O)C(=O)N[C@@H](Cc1ccccc1)C(=O)N[C@H](C)C(=O)N1Cc2ccccc2C[C@H]1C(=O)N[C@@H](CO)C(=O)O [YW-113, (D-Tyr)-Phe-Leu-Pro(4-Ph)-(D-Ser)-Gln-Phe-(D-Ala)-Tic-Ser-OH] (H-[dY]FL[Pro(trans-4-Ph)][dS]QF[dA][Tic]S-OH)
25	CC(C)C[C@@H](C(=O)N1CCC[C@H]1C(=O)N[C@H](CO)C(=O)N[C@@H](CCC(N)=O)C(=O)N[C@@H](Cc1ccccc1)C(=O)N[C@H](C)C(=O)N1Cc2ccccc2C[C@H]1C(=O)N(C)[C@@H](CCO)C(=O)O)N(C)C(=O)[C@H](Cc1ccccc1)NC(=O)[C@H](N)Cc1ccc(O)cc1 [YW-177, (D-Tyr)-Phe-(NMe-Leu)-Pro-(D-Ser)-Gln-Phe-(D-Ala)-Tic-(NMe-HoSer)-OH] (H-[dY]F[NMeL]P[dS]QF[dA][Tic][NMehSer]-OH)
1.2	CC(C)C[C@@H](C(=O)N1CC(F)(F)C[C@H]1C(=O)N[C@H](CO)C(=O)N[C@@H](CCC(N)=O)C(=O)N[C@@H](Cc1ccccc1)C(=O)N[C@H](C)C(=O)N1Cc2ccccc2C[C@H]1C(=O)N[C@@H](CO)C(=O)O)N(C)C(=O)[C@H](Cc1ccccc1)NC(=O)[C@H](N)Cc1ccc(O)cc1 [YW-174, (D-Tyr)-Phe-(NMe-Leu)-Pro(diF)-(D-Ser)-Gln-Phe-(D-Ala)-Tic-Ser-OH] (H-[dY]F[NMeL][Pro(4,4-F2)][dS]QF[dA][Tic]S-OH)
190	CC(C)C[C@H](NC(=O)[C@H](Cc1ccccc1)NC(=O)[C@H](N)Cc1ccc(O)cc1)C(=O)N1CC[C@H]1C(=O)N[C@H](CO)C(=O)N[C@@H](CCC(N)=O)C(=O)N[C@@H](Cc1ccccc1)C(=O)N[C@H](C)C(=O)N1Cc2ccccc2C[C@H]1C(=O)N[C@@H](CO)C(=O)O [YW-115, (D-Tyr)-Phe-Leu-Aze-(D-Ser)-Gln-Phe-(D-Ala)-Tic-Ser-OH] (H-[dY]FL[Aze][dS]QF[dA][Tic]S-OH)
